{"source": "patent US20230323463A1", "about": "“COMPOSITIONS AND METHODS FOR DETECTING BCL2L14 AND ETV6 GENE FUSIONS FOR DETERMINING INCREASED DRUG RESISTANCE” (UNIVERSITY OF PITTSBURGH-OF THE COMMONWEALTH SYSTEM OF …, priority 2020, published 2023)", "format_in_all_cases": "cell-based, human", "key": {"[1]": {"system": "engineered stable BT20 cells", "experiment": "Paclitaxel dose curve, cell proliferation by MTS assay", "conditions": "BT20 cells expressing BCL2L14-ETV6 fusions vs vector or wtETV6; short-term (72 h) treatment, various doses", "protocol": "(§1) Cell proliferation and clonogenic assays. Engineered stable BT20 cells were seeded at a density of 3,000 cells/well in a 96-well plate. Cell proliferation was measured by MTS assay at different time points using CellTiter 96 AQueous One Solution Cell Proliferation Assay (Promega). For paclitaxel dose curve, stable BT20 cells were seeded at a density of 5000 cells/well in a 96-well plate and treated with vehicle or different doses of paclitaxel. Cell proliferation was measured by MTS assay after 72 hours of treatment. For clonogenic assay, stable BT20 or MCF10A cells were seeded at a density of 10,000 cells/well in a 24-well plate. After attachment to the plate, cells were treated with 0.1% DMSO (vehicle) or paclitaxel at 5 nM for BT20 cells for 6 days or 15 nM for MCF10A cells for 5 days before replacement of the chemical with fresh growth medium. The remaining colonies were growing in the plate for one month and then stained with 0.5% crystal violet in 50% ethanol and counted using ChemiDoc photography (Bio-Rad) and ImageJ."}, "engineered BT20 cells": {"system": "engineered BT20 cells", "experiment": "Apoptotic biomarkers by immunoblotting after paclitaxel treatment", "conditions": "BT20 cells overexpressing BCL2L14-ETV6 fusions vs wtETV6-expressing cells; 48 hours", "description": "Western blot. For immunoblot analysis, total proteins were extracted by homogenizing the cells in NP40 Lysis Buffer supplemented with complete protease inhibitor cocktail tablet (Roche), 1 mM DTT, and 1 mM PMSF. 20~50 micrograms of protein extracts were denatured in sample buffer, separated by SDS-PAGE, and transferred onto a PVDF membrane (GE). The membranes were blocked and then incubated for 1 h at room temperature or overnight at 4° C. with primary antibodies, followed by incubation with respective horseradish peroxidaseconjugated secondary antibody. The signals were then visualized by the enhanced chemiluminescence system (Clarity Western ECL Substrate and ChemiDoc imaging system, Bio-Rad)."}, "[2]": {"system": "engineered stable BT20 cells", "experiment": "Clonogenic assay after prolonged paclitaxel treatment, BT20", "conditions": "5 nM paclitaxel, one month", "protocol": "as §1"}, "[3]": {"system": "engineered stable MCF10A cells", "experiment": "Clonogenic assay after prolonged paclitaxel treatment, MCF10A", "conditions": "MCF10A cells expressing BCL2L14-ETV6 fusions vs vector or wtETV6; 15 nM paclitaxel, one month", "protocol": "as §1"}}, "note": "“Also recorded” adds a separate entry of the source.", "data": [{"compound": "CC(=O)O[C@H]1C(=O)[C@@]2(C)[C@H]([C@H](OC(=O)c3ccccc3)[C@]3(O)C[C@H](OC(=O)[C@H](O)[C@@H](NC(=O)c4ccccc4)c4ccccc4)C(C)=C1C3(C)C)[C@]1(OC(C)=O)CO[C@@H]1C[C@@H]2O", "note": "[paclitaxel]", "values": [{"measurement": "sensitivity to paclitaxel (cell viability)", "setting": "[1]", "result": "modest reduced sensitivity; also recorded: increased resistance"}, {"measurement": "apoptosis biomarkers following paclitaxel treatment", "setting": "engineered BT20 cells", "result": "did not show evident reduced apoptosis"}, {"measurement": "clonal resistance to paclitaxel", "setting": "[2]; BT20 cells expressing BCL2L14-ETV6 fusions (E2E3, E4E3, E4E2)", "result": "evident clonal resistance; also recorded: clonal resistance in BT20 cells"}, {"measurement": "clonal survival after paclitaxel", "setting": "[2]; BT20 cells expressing wtETV6 or vector control", "result": "almost eradicated"}, {"measurement": "clonal resistance to paclitaxel", "setting": "[3]", "result": "increased clonal resistance; also recorded: clonal resistance in MCF10A cells"}]}]}
